In brackets after ≈: the same amount, converted by molar mass.
What was measured:
Assay type in all cases: cell-based
Escherichia coli = assay: MIC by agar dilution (NCCLS), 322 nosocomial Gram negative isolates, Athens 1998; settings: Escherichia coli; n = 57 isolates
[1] = tested on: Streptococcus pneumoniae and Haemophilus influenzae; assay: MIC by broth microdilution (NCCLS), all isolates pooled
Proteus mirabilis = assay: MIC by agar dilution (NCCLS), 322 nosocomial Gram negative isolates, Athens 1998; settings: Proteus mirabilis; n = 57 isolates
Hafnia alvei = assay: MIC by agar dilution (NCCLS M7-A4), 288 enteropathogenic isolates, eight quinolones; settings: Hafnia alvei (n = 32)
Enterococcus faecalis = assay: MIC by agar macrodilution (NCCLS), 373 Gram positive isolates, Athens 1998
[2] = tested on: Mycobacterium tuberculosis (MTB); assay: MIC by proportions method (NCCLS M24-T, 1995), 82 MTB strains; settings: Mycobacterium tuberculosis; 82 MTB strains
Yersinia enterocolitica = assay: MIC by agar dilution (NCCLS M7-A4), 288 enteropathogenic isolates, eight quinolones; settings: Yersinia enterocolitica (n = 22)
Streptococcus pyogenes [3] = assay: MIC by NCCLS broth microdilution, 1100 Japanese clinical isolates 1997-1998; settings: Streptococcus pyogenes (n=51)
Streptococcus pneumoniae [4] = assay: as above; settings: for MIC50 / MIC90 / MIC: Streptococcus pneumoniae; for MIC50: read-out: MIC50; for MIC90: read-out: MIC90; for MIC: Streptococcus pneumoniae quinolone resistant
Proteus vulgaris = assay: as above
Providencia rettgeri = assay: as above
Staphylococcus aureus = assay: MIC by NCCLS reference broth microdilution, 450 respiratory tract pathogens
Streptococcus pyogenes [5] = assay: as above; settings: Streptococcus pyogenes
[6] = tested on: Staphylococcus epidermidis; assay: MIC by NCCLS broth microdilution, 1100 Japanese clinical isolates 1997-1998; settings: for MIC50 / MIC90: Staphylococcus epidermidis
Streptococcus pneumoniae [7] = assay: MIC by two-fold serial agar dilution, Sensitivity Disk agar-N (Kitasato isolates); settings: Streptococcus pneumoniae; for MIC90: read-out: MIC90; for MIC: read-out: MIC Range; for MIC50: read-out: MIC50
[8] = all (380) isolates tested (235 S. pneumoniae, 145 H. influenzae)
[9] = Streptococcus pneumoniae amoxicillin resistant (n=40)
[10] = Streptococcus pneumoniae amoxicillin susceptible (n=35)
[11] = Streptococcus pneumoniae erythromycin resistant (n=34)
[12] = Streptococcus pneumoniae erythromycin susceptible (n=11)
[13] = β-lactamase positive and erythromycin resistant (n = 10)
[14] = erythromycin resistant C phenotype [MLSB] (n = 20)
[15] = erythromycin resistant I phenotype [MLSB] (n = 20)
[16] = Staphylococcus epidermidis oxacillin resistant (n=43)
[17] = Staphylococcus epidermidis oxacillin susceptible (n=35)

Molecule `Cc1c(F)c(N2CCNC(C)C2)cc2c1c(=O)c(C(=O)O)cn2C1CC1` (centres unmarked) [Grepafloxacin, grepafloxacin] has an MIC50 (Escherichia coli) of 0.06 µg/mL (≈ 0.167 µM), an MIC90 (Escherichia coli) of 0.25 µg/mL (≈ 0.696 µM) and an MIC90 [1, 8] of 0.12 µg/mL (≈ 0.334 µM). For the same molecule, the MIC90 ([1]; all isolates tested (602)) was 0.12 µg/mL (≈ 0.334 µM), the MIC50 (Proteus mirabilis) was 0.5 µg/mL (≈ 1.39 µM) and the MIC90 (Proteus mirabilis) was 16 µg/mL (≈ 44.5 µM). The “% Susceptible” value (Hafnia alvei) was 100%, the MIC50 (Hafnia alvei) was 0.03 µg/mL (≈ 0.0835 µM) and the MIC90 (Hafnia alvei) was 0.06 µg/mL (≈ 0.167 µM). The “MIC Range” value (Hafnia alvei) was no more than 0.015 to 0.06 µg/mL, the “MIC distribution (µg/ml) 0.03” value (Enterococcus faecalis) was 0 and the “MIC distribution (µg/ml) 0.06” value (Enterococcus faecalis) was 0. For the same molecule, the “MIC distribution (µg/ml) 0.125” value (Enterococcus faecalis) was 0, the “MIC distribution (µg/ml) 0.25” value (Enterococcus faecalis) was 2 and the “MIC distribution (µg/ml) 1” value (Enterococcus faecalis) was 22. The “MIC distribution (µg/ml) 2” value (Enterococcus faecalis) was 21, the “MIC distribution (µg/ml) 4” value (Enterococcus faecalis) was 6 and the “MIC distribution (µg/ml) 8” value (Enterococcus faecalis) was 4. The “MIC distribution (µg/ml) 16” value (Enterococcus faecalis) was 2, the “MIC distribution (µg/ml) ≤0.015” value (Enterococcus faecalis) was 0 and the “MIC distribution (µg/ml) ≥32” value (Enterococcus faecalis) was 19. For the same molecule, the MIC50 (Enterococcus faecalis; Enterococcus faecalis, n = 81 isolates, read-out: MIC50) was 2 µg/mL (≈ 5.56 µM), the MIC90 (Enterococcus faecalis; Enterococcus faecalis, n = 81 isolates, read-out: MIC90) was no less than 32 µg/mL and the “MIC distribution (µg/ml) 0.5” value (Enterococcus faecalis; number of isolates at MIC 0.5 µg/ml, n = 81) was 5. For the same molecule, the MIC90 [2] was 2 µg/mL (≈ 5.56 µM), the “% Susceptible” value (Yersinia enterocolitica) was 100% and the MIC50 (Yersinia enterocolitica) was 0.03 µg/mL (≈ 0.0835 µM). The MIC90 (Yersinia enterocolitica) was 0.03 µg/mL (≈ 0.0835 µM) and the “MIC Range” value (Yersinia enterocolitica) was no more than 0.015 to 0.25 µg/mL.

With `C[C@H]1COc2c(N3CCN(C)CC3)c(F)cc3c(=O)c(C(=O)O)cn1c23` [Levofloxacin, levofloxacin] the MIC90 (Streptococcus pyogenes [3]) was 2 µg/mL (≈ 5.53 µM), the “MIC Range” value (Streptococcus pyogenes [3]) was 0.5 to 2 µg/mL and the MIC90 [1, 8] was 1 µg/mL (≈ 2.77 µM). The MIC90 ([1]; all isolates tested (602)) was 1 µg/mL (≈ 2.77 µM), the “MIC Range” value (Streptococcus pneumoniae [4]; [9]) was 0.5 to 8 µg/mL and the “MIC Range” value (Streptococcus pneumoniae [4]; [10]) was 0.063 to 8 µg/mL. For the same molecule, the “MIC Range” value (Streptococcus pneumoniae [4]; [11]) was 0.063 to 8 µg/mL, the “MIC Range” value (Streptococcus pneumoniae [4]; [12]) was 0.5 to 1 µg/mL and the MIC50 (Streptococcus pneumoniae [4]; [9]) was 1 µg/mL (≈ 2.77 µM). It also gave an MIC90 (Streptococcus pneumoniae [4]; [9]) of 1 µg/mL (≈ 2.77 µM), an MIC50 (Streptococcus pneumoniae [4]; [10]) of 1 µg/mL (≈ 2.77 µM) and an MIC90 (Streptococcus pneumoniae [4]; [10]) of 1 µg/mL (≈ 2.77 µM). For the same molecule, the MIC50 (Streptococcus pneumoniae [4]; [11]) was 1 µg/mL (≈ 2.77 µM), the MIC90 (Streptococcus pneumoniae [4]; [11]) was 1 µg/mL (≈ 2.77 µM) and the MIC50 (Streptococcus pneumoniae [4]; [12]) was 1 µg/mL (≈ 2.77 µM). The MIC90 (Streptococcus pneumoniae [4]; [12]) was 1 µg/mL (≈ 2.77 µM), the MIC (Streptococcus pneumoniae [4]; strain TMS1) was 1 µg/mL (≈ 2.77 µM) and the MIC (Streptococcus pneumoniae [4]; strain TMS2) was 16 µg/mL (≈ 44.3 µM). The “% Susceptible” value (Hafnia alvei) was 100%, the MIC50 (Hafnia alvei) was 0.03 µg/mL (≈ 0.083 µM) and the MIC90 (Hafnia alvei) was 0.03 µg/mL (≈ 0.083 µM). For the same molecule, the “MIC Range” value (Hafnia alvei) was no more than 0.015 to 0.03 µg/mL, the MIC90 (Proteus vulgaris; Proteus vulgaris) was 0.125 µg/mL (≈ 0.346 µM) and the “MIC Range” value (Proteus vulgaris; Proteus vulgaris (n=25)) was 0.032 to 1 µg/mL. For the same molecule, the MIC50 (Proteus vulgaris; Proteus vulgaris (n=25), read-out: MIC50) was 0.063 µg/mL (≈ 0.174 µM), the MIC50 (Providencia rettgeri; Providencia rettgeri) was 0.125 µg/mL (≈ 0.346 µM) and the MIC90 (Providencia rettgeri; Providencia rettgeri (n=12)) was 8 µg/mL (≈ 22.1 µM). The “MIC Range” value (Providencia rettgeri; Providencia rettgeri (n=12)) was 0.125 to 8 µg/mL, the MIC (Staphylococcus aureus; Staphylococcus aureus (n = 50)) was 0.03 to 2 µg/mL (≈ 0.083 to 5.53 µM) and the MIC50 (Staphylococcus aureus; Staphylococcus aureus (n = 50)) was 1 µg/mL (≈ 2.77 µM). The MIC90 (Staphylococcus aureus; Staphylococcus aureus (n = 50)) was 2 µg/mL (≈ 5.53 µM), the MIC (Staphylococcus aureus; β-lactamase negative (n = 20)) was 0.03 to 2 µg/mL (≈ 0.083 to 5.53 µM) and the MIC50 (Staphylococcus aureus; β-lactamase negative (n = 20)) was 2 µg/mL (≈ 5.53 µM). For the same molecule, the MIC90 (Staphylococcus aureus; β-lactamase negative (n = 20)) was 2 µg/mL (≈ 5.53 µM), the MIC (Staphylococcus aureus; β-lactamase positive (n = 20)) was 1 to 2 µg/mL (≈ 2.77 to 5.53 µM) and the MIC50 (Staphylococcus aureus; β-lactamase positive (n = 20)) was 1 µg/mL (≈ 2.77 µM). For the same molecule, the MIC90 (Staphylococcus aureus; β-lactamase positive (n = 20)) was 2 µg/mL (≈ 5.53 µM), the MIC50 (Staphylococcus aureus; [13]) was 1 µg/mL (≈ 2.77 µM) and the MIC90 (Staphylococcus aureus; [13]) was 2 µg/mL (≈ 5.53 µM). The MIC90 [2] was 1 µg/mL (≈ 2.77 µM), the MIC (Streptococcus pyogenes [5]; Streptococcus pyogenes (n = 100)) was 0.06 to 2 µg/mL (≈ 0.166 to 5.53 µM) and the MIC (Streptococcus pyogenes [5]; [14]) was 0.25 to 1 µg/mL (≈ 0.692 to 2.77 µM). The MIC50 (Streptococcus pyogenes [5]; [14]) was 0.25 µg/mL (≈ 0.692 µM), the MIC90 (Streptococcus pyogenes [5]; [14]) was 0.25 µg/mL (≈ 0.692 µM) and the MIC (Streptococcus pyogenes [5]; [15]) was 0.25 to 2 µg/mL (≈ 0.692 to 5.53 µM). It also gave an MIC50 (Streptococcus pyogenes [5]; [15]) of 0.25 µg/mL (≈ 0.692 µM), an MIC90 (Streptococcus pyogenes [5]; [15]) of 0.25 µg/mL (≈ 0.692 µM) and an MIC (Streptococcus pyogenes [5]; erythromycin resistant M phenotype (n = 20)) of 0.06 to 1 µg/mL (≈ 0.166 to 2.77 µM). The MIC (Streptococcus pyogenes [5]; fully susceptible (n = 20)) was 0.25 to 2 µg/mL (≈ 0.692 to 5.53 µM), the MIC (Streptococcus pyogenes [5]; multi-drug resistant (n = 20)) was 0.25 to 1 µg/mL (≈ 0.692 to 2.77 µM) and the “MIC Range” value [6, 16] was 0.25 to 16 µg/mL. The “MIC Range” value [6, 17] was 0.063 to 8 µg/mL, the MIC50 [6, 16] was 4 µg/mL (≈ 11.1 µM) and the MIC90 [6, 16] was 8 µg/mL (≈ 22.1 µM). It also gave an MIC50 [6, 17] of 0.25 µg/mL (≈ 0.692 µM), an MIC90 [6, 17] of 4 µg/mL (≈ 11.1 µM) and an MIC90 (Streptococcus pneumoniae [7]; 18 h, Ciprofloxacin-resistant (21), ciprofloxacin MIC ≥8 µg/ml) of 16 µg/mL (≈ 44.3 µM). It also gave an MIC (Streptococcus pneumoniae [7]; 18 h, Ciprofloxacin-resistant (21)) of 2 to 32 µg/mL (≈ 5.53 to 88.6 µM), an MIC (Streptococcus pneumoniae [7]; 18 h, Ciprofloxacin-susceptible (94)) of 0.25 to 2 µg/mL (≈ 0.692 to 5.53 µM) and an MIC (Streptococcus pneumoniae [7]; 18 h, Erythromycin-resistant (37)) of 0.5 to 16 µg/mL (≈ 1.38 to 44.3 µM). It also gave an MIC (Streptococcus pneumoniae [7]; 18 h, Minocycline-resistant (37)) of 0.25 to 16 µg/mL (≈ 0.692 to 44.3 µM), an MIC (Streptococcus pneumoniae [7]; 18 h, Penicillin-resistant (19)) of 0.5 to 8 µg/mL (≈ 1.38 to 22.1 µM) and an MIC50 (Streptococcus pneumoniae [7]; Ciprofloxacin-resistant (21)) of 16 µg/mL (≈ 44.3 µM). For the same molecule, the MIC50 (Streptococcus pneumoniae [7]; Ciprofloxacin-susceptible (94)) was 0.5 µg/mL (≈ 1.38 µM), the MIC90 (Streptococcus pneumoniae [7]; Ciprofloxacin-susceptible (94)) was 1 µg/mL (≈ 2.77 µM) and the MIC50 (Streptococcus pneumoniae [7]; Erythromycin-resistant (37)) was 1 µg/mL (≈ 2.77 µM). The MIC90 (Streptococcus pneumoniae [7]; Erythromycin-resistant (37)) was 2 µg/mL (≈ 5.53 µM), the MIC50 (Streptococcus pneumoniae [7]; Minocycline-resistant (37)) was 1 µg/mL (≈ 2.77 µM) and the MIC90 (Streptococcus pneumoniae [7]; Minocycline-resistant (37)) was 2 µg/mL (≈ 5.53 µM). The MIC50 (Streptococcus pneumoniae [7]; Penicillin-resistant (19)) was 0.5 µg/mL (≈ 1.38 µM), the MIC90 (Streptococcus pneumoniae [7]; Penicillin-resistant (19)) was 1 µg/mL (≈ 2.77 µM) and the “% Susceptible” value (Yersinia enterocolitica) was 100%. The MIC50 (Yersinia enterocolitica) was 0.06 µg/mL (≈ 0.166 µM), the MIC90 (Yersinia enterocolitica) was 0.06 µg/mL (≈ 0.166 µM) and the “MIC Range” value (Yersinia enterocolitica) was 0.03 to 0.5 µg/mL.

Source: patent publication EP1561465A2, “Methods of use of fluoroquinolone compounds against bacteria” (LG Life Sciences, Ltd., priority 1999, dated 2001)
